# Experimental data taken from patent publication US10227344B2, “CK2 inhibitors, compositions and methods thereof” (Polaris Pharmaceuticals, Inc., priority 2016, dated 2019).
# Key:
# Type in all cases: cell-based
# ZR-75-1 = experiment: Cancer cell panel, cell viability (resazurin): Breast, ZR-75-1; details: ZR-75-1 (Breast), 72 hours; labelled drug combined with Example 3
# Procedure: (§1) Cells were plated in 96-well plates and treated for 72 hours with a serially diluted CK2 inhibitor or anti-cancer drug or their combination. The suspension cell lines were treated right after plating, while the adherent cells were allowed to attach overnight prior to the start of the treatment.
# (§2) Cell viability was determined by adding resazurin to cell cultures and measuring fluorescence with a plate reader. Relative cell viability was calculated by dividing the cell viability signal from a test sample by that of a non-treated control. […] Bliss Independence and Highest Single Agent models were used to determine if there is synergy, additivity or antagonism between the CK2 inhibitor and an anti-cancer drug.
# MeWO = experiment: Cancer cell panel, cell viability (resazurin): Melanoma, MeWO; details: 72 hours, labelled drug combined with Example 3
# Procedure: as §1, §2
# SK-MEL-24 = experiment: Cancer cell panel, cell viability (resazurin): Melanoma, SK-MEL-24; details: SK-MEL-24 (Melanoma), 72 hours; labelled drug combined with Example 3
# A375 = experiment: Cancer cell panel, cell viability (resazurin): Melanoma, A375; details: 72 hours, labelled drug combined with Example 3
# Raji = experiment: Cancer cell panel, cell viability (resazurin): Burkitt's Lymphoma, Raji; details: 72 hours, labelled drug combined with Example 3
# Caki-2 = experiment: Cancer cell panel, cell viability (resazurin): Renal, Caki-2; details: Caki-2 (Renal), 72 hours; labelled drug combined with Example 3
# Panc-1 = experiment: Cancer cell panel, cell viability (resazurin): Pancreatic, Panc-1; details: Panc-1 (Pancreatic), 72 hours; labelled drug combined with Example 3
# Procedure: as §1, §2
# MDA-MB-231 = experiment: Cancer cell panel, cell viability (resazurin): Breast, MDA-MB-231; details: MDA-MB-231 (Breast), 72 hours; labelled drug combined with Example 3
# Mia-Paca-2 = experiment: Cancer cell panel, cell viability (resazurin): Pancreatic, Mia-Paca-2; details: Mia-Paca-2 (Pancreatic), 72 hours; labelled drug combined with Example 3
# Procedure: as §1, §2
# SK-MEL-3 = experiment: Cancer cell panel, cell viability (resazurin): Melanoma, SK-MEL-3; details: SK-MEL-3 (Melanoma), 72 hours; labelled drug combined with Example 3
# HL60 = experiment: Cancer cell panel, cell viability (resazurin): Leukemia, HL60; details: 72 hours, labelled drug combined with Example 3
# MCF7 = experiment: Cancer cell panel, cell viability (resazurin): Breast, MCF7; details: 72 hours, labelled drug combined with Example 3
# Procedure: as §1, §2
# MDA-MB-157 = experiment: Cancer cell panel, cell viability (resazurin): Breast, MDA-MB-157; details: MDA-MB-157 (Breast), 72 hours; labelled drug combined with Example 3
# Procedure: as §1, §2
# HCT116 = experiment: Cancer cell panel, cell viability (resazurin): Colon, HCT116; details: 72 hours, labelled drug combined with Example 3
# Procedure: as §1, §2
# Caki-1 = experiment: Cancer cell panel, cell viability (resazurin): Renal, Caki-1; details: Caki-1 (Renal), 72 hours; labelled drug combined with Example 3
# EOL-1 = experiment: Cancer cell panel, cell viability (resazurin): Leukemia, EOL-1; details: EOL-1 (Leukemia), 72 hours; labelled drug combined with Example 3
# SkBr-3 = experiment: Cancer cell panel, cell viability (resazurin): Breast, SkBr-3; details: SkBr-3 (Breast), 72 hours; labelled drug combined with Example 3
# H1975 = experiment: Cancer cell panel, cell viability (resazurin): NSCLC, H1975; details: 72 hours, labelled drug combined with Example 3
# Procedure: as §1, §2
# A2780 = experiment: Cancer cell panel, cell viability (resazurin): Ovarian, A2780; details: 72 hours, labelled drug combined with Example 3
# WM-115 = experiment: Cancer cell panel, cell viability (resazurin): Melanoma, WM-115; details: WM-115 (Melanoma), 72 hours; labelled drug combined with Example 3
# Procedure: as §1, §2
# H23 = experiment: Cancer cell panel, cell viability (resazurin): NSCLC, H23; details: 72 hours, labelled drug combined with Example 3
# SKOV-3 = experiment: Cancer cell panel, cell viability (resazurin): Ovarian, SKOV-3; details: SKOV-3 (Ovarian), 72 hours; labelled drug combined with Example 3
# Procedure: as §1, §2
# LoVo = experiment: Cancer cell panel, cell viability (resazurin): Colon, LoVo; details: 72 hours, labelled drug combined with Example 3
compound,measurement,setting,value
"Nc1ccn([C@@H]2O[C@H](CO)[C@@H](O)C2(F)F)c(=O)n1 [Gemcitabine, gemcitabine]","synergy, additivity or antagonism of the combination of Example 3 with the anti-cancer drug",ZR-75-1,+ (Additive relative to each agent alone (CI = 0.9-1 by Bliss Independence Model and <0.9 by Highest Single Agent Model))
same,"synergy, additivity or antagonism of the combination of Example 3 with the anti-cancer drug",MeWO,+ (Additive relative to each agent alone (CI = 0.9-1 by Bliss Independence Model and <0.9 by Highest Single Agent Model))
same,"synergy, additivity or antagonism of the combination of Example 3 with the anti-cancer drug",SK-MEL-24,+ (Additive relative to each agent alone (CI = 0.9-1 by Bliss Independence Model and <0.9 by Highest Single Agent Model))
same,"synergy, additivity or antagonism of the combination of Example 3 with the anti-cancer drug",A375,+ (Additive relative to each agent alone (CI = 0.9-1 by Bliss Independence Model and <0.9 by Highest Single Agent Model))
same,"synergy, additivity or antagonism of the combination of Example 3 with the anti-cancer drug",Raji,+ + (Slight synergy relative to each agent alone (CI = 0.75-0.9 by Bliss Independence Model))
same,"synergy, additivity or antagonism of the combination of Example 3 with the anti-cancer drug",Caki-2,+ (Additive relative to each agent alone (CI = 0.9-1 by Bliss Independence Model and <0.9 by Highest Single Agent Model))
same,"synergy, additivity or antagonism of the combination of Example 3 with the anti-cancer drug",Panc-1,+ (Additive relative to each agent alone (CI = 0.9-1 by Bliss Independence Model and <0.9 by Highest Single Agent Model))
same,"synergy, additivity or antagonism of the combination of Example 3 with the anti-cancer drug",MDA-MB-231,+ + (Slight synergy relative to each agent alone (CI = 0.75-0.9 by Bliss Independence Model))
same,"synergy, additivity or antagonism of the combination of Example 3 with the anti-cancer drug",Mia-Paca-2,+ + (Slight synergy relative to each agent alone (CI = 0.75-0.9 by Bliss Independence Model))
same,"synergy, additivity or antagonism of the combination of Example 3 with the anti-cancer drug",SK-MEL-3,+ (Additive relative to each agent alone (CI = 0.9-1 by Bliss Independence Model and <0.9 by Highest Single Agent Model))
same,"synergy, additivity or antagonism of the combination of Example 3 with the anti-cancer drug",HL60,+ + (Slight synergy relative to each agent alone (CI = 0.75-0.9 by Bliss Independence Model))
same,"synergy, additivity or antagonism of the combination of Example 3 with the anti-cancer drug",MCF7,+ (Additive relative to each agent alone (CI = 0.9-1 by Bliss Independence Model and <0.9 by Highest Single Agent Model))
same,"synergy, additivity or antagonism of the combination of Example 3 with the anti-cancer drug",MDA-MB-157,+ + (Slight synergy relative to each agent alone (CI = 0.75-0.9 by Bliss Independence Model))
same,"synergy, additivity or antagonism of the combination of Example 3 with the anti-cancer drug",HCT116,+ (Additive relative to each agent alone (CI = 0.9-1 by Bliss Independence Model and <0.9 by Highest Single Agent Model))
same,"synergy, additivity or antagonism of the combination of Example 3 with the anti-cancer drug",Caki-1,+ (Additive relative to each agent alone (CI = 0.9-1 by Bliss Independence Model and <0.9 by Highest Single Agent Model))
same,"synergy, additivity or antagonism of the combination of Example 3 with the anti-cancer drug",EOL-1,+ + + + (Strong synergy relative to each agent alone (CI < 0.4 by Bliss Independence Model))
same,"synergy, additivity or antagonism of the combination of Example 3 with the anti-cancer drug",SkBr-3,+ (Additive relative to each agent alone (CI = 0.9-1 by Bliss Independence Model and <0.9 by Highest Single Agent Model))
same,"synergy, additivity or antagonism of the combination of Example 3 with the anti-cancer drug",H1975,+ (Additive relative to each agent alone (CI = 0.9-1 by Bliss Independence Model and <0.9 by Highest Single Agent Model))
same,"synergy, additivity or antagonism of the combination of Example 3 with the anti-cancer drug",A2780,+ + + (Synergy relative to each agent alone (CI = 0.4-0.74 by Bliss Independence Model))
same,"synergy, additivity or antagonism of the combination of Example 3 with the anti-cancer drug",WM-115,+ (Additive relative to each agent alone (CI = 0.9-1 by Bliss Independence Model and <0.9 by Highest Single Agent Model))
same,"synergy, additivity or antagonism of the combination of Example 3 with the anti-cancer drug",H23,+ (Additive relative to each agent alone (CI = 0.9-1 by Bliss Independence Model and <0.9 by Highest Single Agent Model))
same,"synergy, additivity or antagonism of the combination of Example 3 with the anti-cancer drug",SKOV-3,+ + (Slight synergy relative to each agent alone (CI = 0.75-0.9 by Bliss Independence Model))
same,"synergy, additivity or antagonism of the combination of Example 3 with the anti-cancer drug",LoVo,+ (Additive relative to each agent alone (CI = 0.9-1 by Bliss Independence Model and <0.9 by Highest Single Agent Model))
